Activity and inhibition data for 7 compounds are collected here from ChEMBL document CHEMBL2385060, “A dihydrochalcone and several homoisoflavonoids from Polygonatum odoratum are activators of adenosine monophosphate-activated protein kinase” (Bioorg Med Chem Lett, 2013).

The structures appear in SMILES notation. Calls of active or inactive are those of the source. The rule behind the calls is not given here.

Type in all cases: cell-based
In experiment [1] the target is 5'-AMP-activated protein kinase catalytic subunit alpha-2 (Rattus norvegicus) (UniProt Q09137). The experiment can be described thus: Activation of AMPK in rat IAR-20 cells assessed as phosphorylated acetyl CoA carboxylase level at 10 uM after 30 mins by Western blot analysis.
Experiment [2] has the same target. The experiment can be described thus: Activation of AMPK in rat IAR-20 cells assessed as phosphorylated protein level at 10 uM after 30 mins by Western blot analysis.
The target is the same in experiment [3]. Briefly: Inhibition of AMPK in rat IAR-20 cells assessed as phosphorylated acetyl CoA carboxylase level at 10 uM after 30 mins by Western blot analysis.
Experiment [4] has the same target. The experiment can be described thus: Inhibition of AMPK in rat IAR-20 cells assessed as phosphorylated protein level at 10 uM after 30 mins by Western blot analysis.

5'-AMP-activated protein kinase catalytic subunit alpha-2 (Rattus norvegicus), sequence (Q09137 whole entry): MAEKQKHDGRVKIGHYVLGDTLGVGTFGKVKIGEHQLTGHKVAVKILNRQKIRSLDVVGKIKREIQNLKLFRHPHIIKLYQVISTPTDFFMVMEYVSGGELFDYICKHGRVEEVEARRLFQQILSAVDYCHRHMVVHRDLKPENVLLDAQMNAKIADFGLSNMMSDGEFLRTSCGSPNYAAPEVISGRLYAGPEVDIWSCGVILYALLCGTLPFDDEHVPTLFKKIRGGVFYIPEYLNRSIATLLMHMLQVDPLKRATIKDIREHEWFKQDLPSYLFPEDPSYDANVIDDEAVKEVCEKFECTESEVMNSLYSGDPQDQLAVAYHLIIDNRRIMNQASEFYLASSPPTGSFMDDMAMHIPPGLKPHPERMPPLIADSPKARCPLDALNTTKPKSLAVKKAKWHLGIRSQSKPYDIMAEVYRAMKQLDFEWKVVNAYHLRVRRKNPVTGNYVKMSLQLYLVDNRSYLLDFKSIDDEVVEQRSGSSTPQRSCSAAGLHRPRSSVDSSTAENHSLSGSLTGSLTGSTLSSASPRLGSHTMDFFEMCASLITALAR

Regarding `COc1cc(O)c(C)c(O)c1C(=O)CCc1ccc(O)cc1`, the result in experiment [1] and in experiment [2] was Active.
Take `COc1c(O)c(C)c(O)c2c1OC[C@@H](Cc1ccc(O)cc1)C2=O`: the outcome in experiment [1] and in experiment [2] was Active.
`COc1c(O)c(C)c(O)c2c1OC[C@@](O)(Cc1ccc(O)cc1)C2=O`: the inhibition entry in experiment [3] and in experiment [4] was “Active” throughout.
Take `Cc1c(O)c(C)c2c(c1O)C(=O)[C@](O)(Cc1ccc(O)cc1)CO2`: the inhibition entry in experiment [3] and in experiment [4] was “Active” each time.
In the case of `Cc1c(O)cc2c(c1O)C(=O)[C@H](Cc1ccc(O)cc1)CO2`, the outcome in experiment [1] and in experiment [2] was Active.
With `Cc1c(O)c(C)c2c(c1O)C(=O)[C@H](Cc1ccc(O)cc1)CO2`, the result in experiment [1] and in experiment [2] was Active.
Take `COc1ccc(CC2COc3c(OC)c(O)cc(O)c3C2=O)c(O)c1` (centres undefined): the inhibition entry in experiment [3] and in experiment [4] was “Active” each time.
